Test results from the supplement of paper PMC10307832.

Experiments:
Experiment in all cases: relative viability (nuclei count vs DMSO), 5 days (fraction); higher = more cells survive
EMC-BAC-2 = system: EMC-BAC-2
Procedure, shortened: (§1)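 Dosing by pin tool came one day after lung cancer cell lines were seeded in 1536-well plates, using either one drug or a fixed anchor-drug dose plus five library-drug doses (not always all listed) in √10 steps. After 5 days, nuclei were counted on 4× images. Relative viability is treated-well nuclei count divided by vehicle-well nuclei count, and values are medians of duplicate plates.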

NCI-H23 = system: NCI-H23
Procedure, shortened: as §1

BEN = system: BEN
Procedure, shortened: as §1

NCI-H2023 = system: NCI-H2023
Procedure, shortened: as §1

NCI-H647 = system: NCI-H647
Procedure, shortened: as §1

NCI-H2009 = system: NCI-H2009
Procedure, shortened: as §1

NCI-H2126 = system: NCI-H2126
Procedure, shortened: as §1

NCI-H838 = system: NCI-H838
Procedure, shortened: as §1

NCI-H3122 = system: NCI-H3122
Procedure, shortened: as §1

HARA = system: HARA
Procedure, shortened: as §1

201T = system: 201T
Procedure, shortened: as §1

NCI-H1666 = system: NCI-H1666
Procedure, shortened: as §1

NCI-H1395 = system: NCI-H1395
Procedure, shortened: as §1

NCI-H727 = system: NCI-H727
Procedure, shortened: as §1

NCI-H2347 = system: NCI-H2347
Procedure, shortened: as §1

LCLC-103H = system: LCLC-103H
Procedure, shortened: as §1

HCC-44 = system: HCC-44
Procedure, shortened: as §1

NCI-H2087 = system: NCI-H2087
Procedure, shortened: as §1

NCI-H1993 = system: NCI-H1993
Procedure, shortened: as §1

NCI-H650 = system: NCI-H650
Procedure, shortened: as §1

NCI-H441 = system: NCI-H441
Procedure, shortened: as §1

NCI-H596 = system: NCI-H596
Procedure, shortened: as §1

LOU-NH91 = system: LOU-NH91
Procedure, shortened: as §1

Q: What does the source list for `CC1(C)CCC(c2ccc(Cl)cc2)=C(CN2CCN(c3ccc(C(=O)NS(=O)(=O)c4ccc(N[C@H](CCN5CCOCC5)CSc5ccccc5)c(S(=O)(=O)C(F)(F)F)c4)cc3)CC2)C1` [Navitoclax] + C[C@]1(O)C[C@@H](c2nc(-c3ccc4ccc(-c5ccccc5)nc4c3)c3c(N)nccn32)C1 [Linsitinib] (partner 1 µM)?
A: relative viability (EMC-BAC-2; first compound 0.005 µM): 0.759; relative viability (EMC-BAC-2; first compound 0.01581 µM): 0.895; relative viability (EMC-BAC-2; first compound 0.05 µM): 0.809; relative viability (EMC-BAC-2; first compound 0.1581 µM): 0.78; relative viability (EMC-BAC-2; first compound 0.5 µM): 0.83; relative viability (NCI-H23; first compound 0.005 µM): 0.628; relative viability (NCI-H23; first compound 0.01581 µM): 0.691; relative viability (NCI-H23; first compound 0.05 µM): 0.559; relative viability (NCI-H23; first compound 0.1581 µM): 0.509; relative viability (NCI-H23; first compound 0.5 µM): 0.642; relative viability (BEN; first compound 0.005 µM): 0.841; relative viability (BEN; first compound 0.01581 µM): 0.921; relative viability (BEN; first compound 0.05 µM): 0.958; relative viability (BEN; first compound 0.1581 µM): 0.911; relative viability (BEN; first compound 0.5 µM): 0.634; relative viability (NCI-H2023; first compound 0.005 µM): 0.625; relative viability (NCI-H2023; first compound 0.01581 µM): 0.713; relative viability (NCI-H2023; first compound 0.05 µM): 0.716; relative viability (NCI-H2023; first compound 0.1581 µM): 0.766; relative viability (NCI-H2023; first compound 0.5 µM): 0.647; relative viability (NCI-H647; first compound 0.005 µM): 1.05; relative viability (NCI-H647; first compound 0.01581 µM): 1.12; relative viability (NCI-H647; first compound 0.05 µM): 1.23; relative viability (NCI-H647; first compound 0.1581 µM): 1.17; relative viability (NCI-H647; first compound 0.5 µM): 1.05; relative viability (NCI-H2009; first compound 0.005 µM): 1.08; relative viability (NCI-H2009; first compound 0.01581 µM): 1.25; relative viability (NCI-H2009; first compound 0.05 µM): 1.16; relative viability (NCI-H2009; first compound 0.1581 µM): 1.18; relative viability (NCI-H2009; first compound 0.5 µM): 1.31; relative viability (NCI-H2126; first compound 0.005 µM): 0.708; relative viability (NCI-H2126; first compound 0.01581 µM): 0.748; relative viability (NCI-H2126; first compound 0.05 µM): 0.786; relative viability (NCI-H2126; first compound 0.1581 µM): 0.661; relative viability (NCI-H2126; first compound 0.5 µM): 0.725; relative viability (NCI-H838; first compound 0.005 µM): 0.89; relative viability (NCI-H838; first compound 0.01581 µM): 1.11; relative viability (NCI-H838; first compound 0.05 µM): 1.12; relative viability (NCI-H838; first compound 0.1581 µM): 1.03; relative viability (NCI-H838; first compound 0.5 µM): 1.03; relative viability (NCI-H3122; first compound 0.005 µM): 1.11; relative viability (NCI-H3122; first compound 0.01581 µM): 1.08; relative viability (NCI-H3122; first compound 0.05 µM): 1.13; relative viability (NCI-H3122; first compound 0.1581 µM): 0.985; relative viability (NCI-H3122; first compound 0.5 µM): 1.02; relative viability (HARA; first compound 0.005 µM): 0.833; relative viability (HARA; first compound 0.01581 µM): 1.16; relative viability (HARA; first compound 0.05 µM): 0.749; relative viability (HARA; first compound 0.1581 µM): 0.918; relative viability (HARA; first compound 0.5 µM): 0.861; relative viability (201T; first compound 0.005 µM): 1.11; relative viability (201T; first compound 0.01581 µM): 1.09; relative viability (201T; first compound 0.05 µM): 0.95; relative viability (201T; first compound 0.1581 µM): 1.05; relative viability (201T; first compound 0.5 µM): 1.01; relative viability (NCI-H1666; first compound 0.005 µM): 0.923; relative viability (NCI-H1666; first compound 0.01581 µM): 0.954; relative viability (NCI-H1666; first compound 0.05 µM): 0.82; relative viability (NCI-H1666; first compound 0.1581 µM): 0.705; relative viability (NCI-H1666; first compound 0.5 µM): 0.829; relative viability (NCI-H1395; first compound 0.005 µM): 0.938; relative viability (NCI-H1395; first compound 0.01581 µM): 1.34; relative viability (NCI-H1395; first compound 0.05 µM): 1.08; relative viability (NCI-H1395; first compound 0.1581 µM): 1.13; relative viability (NCI-H1395; first compound 0.5 µM): 1.27; relative viability (NCI-H727; first compound 0.005 µM): 0.299; relative viability (NCI-H727; first compound 0.01581 µM): 0.358; relative viability (NCI-H727; first compound 0.1581 µM): 0.284; relative viability (NCI-H727; first compound 0.5 µM): 0.162; relative viability (NCI-H2347; first compound 0.005 µM): 0.94; relative viability (NCI-H2347; first compound 0.01581 µM): 1.03; relative viability (NCI-H2347; first compound 0.05 µM): 0.876; relative viability (NCI-H2347; first compound 0.1581 µM): 0.954; relative viability (NCI-H2347; first compound 0.5 µM): 0.973; relative viability (LCLC-103H; first compound 0.005 µM): 1.07; relative viability (LCLC-103H; first compound 0.01581 µM): 1.19; relative viability (LCLC-103H; first compound 0.05 µM): 1.09; relative viability (LCLC-103H; first compound 0.1581 µM): 1.03; relative viability (LCLC-103H; first compound 0.5 µM): 1.02; relative viability (HCC-44; first compound 0.005 µM): 0.592; relative viability (HCC-44; first compound 0.01581 µM): 0.625; relative viability (HCC-44; first compound 0.05 µM): 0.594; relative viability (HCC-44; first compound 0.1581 µM): 0.649; relative viability (HCC-44; first compound 0.5 µM): 0.646; relative viability (NCI-H2087; first compound 0.005 µM): 0.919; relative viability (NCI-H2087; first compound 0.01581 µM): 0.898; relative viability (NCI-H2087; first compound 0.05 µM): 0.956; relative viability (NCI-H2087; first compound 0.1581 µM): 1.14; relative viability (NCI-H2087; first compound 0.5 µM): 0.871; relative viability (NCI-H1993; first compound 0.005 µM): 0.721; relative viability (NCI-H1993; first compound 0.01581 µM): 0.752; relative viability (NCI-H1993; first compound 0.05 µM): 0.706; relative viability (NCI-H1993; first compound 0.1581 µM): 0.672; relative viability (NCI-H1993; first compound 0.5 µM): 0.675; relative viability (NCI-H650; first compound 0.005 µM): 0.703; relative viability (NCI-H650; first compound 0.01581 µM): 0.817; relative viability (NCI-H650; first compound 0.05 µM): 0.97; relative viability (NCI-H650; first compound 0.1581 µM): 0.767; relative viability (NCI-H650; first compound 0.5 µM): 0.846; relative viability (NCI-H441; first compound 0.005 µM): 0.449; relative viability (NCI-H441; first compound 0.01581 µM): 0.587; relative viability (NCI-H441; first compound 0.05 µM): 0.412; relative viability (NCI-H441; first compound 0.1581 µM): 0.44; relative viability (NCI-H441; first compound 0.5 µM): 0.706; relative viability (NCI-H596; first compound 0.005 µM): 1.09; relative viability (NCI-H596; first compound 0.01581 µM): 1.09; relative viability (NCI-H596; first compound 0.05 µM): 0.722; relative viability (NCI-H596; first compound 0.1581 µM): 1; relative viability (NCI-H596; first compound 0.5 µM): 1.02; relative viability (LOU-NH91; first compound 0.005 µM): 0.974; relative viability (LOU-NH91; first compound 0.01581 µM): 0.999; relative viability (LOU-NH91; first compound 0.05 µM): 0.933; relative viability (LOU-NH91; first compound 0.1581 µM): 1.02; relative viability (LOU-NH91; first compound 0.5 µM): 0.842
